Experimental findings from patent US20190269614A1, “CHEWABLE TABLET CONTAINING VITAMIN C SODIUM AND PREPARATION METHOD THEREOF” (GUANGXI SANPOTEL HEALTH INDUSTRY CO. LTD, priority 2016, published 2019) are described below.

The nature of this data set: Lubricant trial: tabletting of vitamin C sodium chewable tablets with different lubricants. It counts as physicochemical. As to conditions: for Tabletting condition: granules with the named lubricant; for Friability / Hardness: tablets with the named lubricant. The source says: During tabletting, in order to increase granule fluidity, and ensure good filling and even distribution of tablet density, a certain amount of lubricant needs to be added to solve the problems of poor granule fluidity and sticking during tabletting. In the experiment of the present application, tabletting conditions when magnesium stearate, micro-powder silica gel, talcum powder, sodium dodecyl sulfate and mannitol were used as the lubricant were compared, and results are shown in Table 3.
From the test results in Table 3, it can be seen that when magnesium stearate, sodium dodecyl sulfate and mannitol are used, fluidity is good and sticking during tabletting is avoided, and prepared tablets have appropriate hardness and smooth and beautiful surfaces; when micro-powder silica gel is added, fluidity is good and sticking during tabletting is avoided, but the hardness of prepared tablets is low; and when talcum powder is added, fluidity is poor and sticking occurs during tabletting, and prepared tablets have large hardness. Therefore, magnesium stearate, sodium dodecyl sulfate and mannitol are selected as the lubricant in the present application.

Turning to `OC[C@@H](O)[C@@H](O)[C@H](O)[C@H](O)CO` [mannitol], the Tabletting condition result is “non-sticking”, the Friability was determined as 0.39% and the Hardness came out at 54 N.

With magnesium stearate, the Tabletting condition result was “non-sticking”, the Friability is recorded as 0.34% and the Hardness was found to be 49 N.

For `CCCCCCCCCCCCOS(=O)(=O)[O-].[Na+]` [sodium dodecyl sulfate], the Tabletting condition result is on record as “non-sticking”, the Friability was 0.42% and the Hardness is 59 N.
